In patent publication US20230085307A1, “PYRIDAZINONE COMPOUND AND HERBICIDE” (NISSAN CHEMICAL CORPORATION, priority 2019, published 2023):

Tests used:
[1] = system: wild oat; assay: Test Example 4: herbicidal effect by soil treatment (Table 19, symbol I); assay type: in vivo, wild oat (Avena fatua); conditions: amount of applied herbicide 320 g/ha
How it was run: (§1)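 Three weeks of greenhouse growth at 25° C. to 30° C. followed a uniform surface spray of water-diluted emulsion at a predetermined herbicide amount. Seeds had been sown beforehand under about 1.5 cm of sterilized diluvial soil. Grading followed criteria set out in an earlier test.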

[2] = system: Italian ryegrass; assay: Test Example 5: herbicidal effect by foliage application, plastic box (Table 20, symbol K); assay type: in vivo, Italian ryegrass (Lolium multiflorum); conditions: foliage application
How it was run: (§2)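 Plants sown in sterilized diluvial soil and grown 14 days in a greenhouse at 25° C to 30° C, then sprayed on the foliage with the compound's emulsion diluted in water to a predetermined herbicide amount. Injury to weeds and crops scored three weeks after application on a visual rating scale.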

[3] = system: southern crabgrass; assay: Test Example 4: herbicidal effect by soil treatment (Table 19, symbol F); assay type: in vivo, southern crabgrass (Digitaria ciliaris); conditions: amount of applied herbicide 320 g/ha
How it was run: as §1

[4] = system: chickweed; assay: Test Example 4: herbicidal effect by soil treatment (Table 19, symbol P); assay type: in vivo, common chickweed (Stellaria media); conditions: amount of applied herbicide 320 g/ha
How it was run: as §1

[5] = system: blackgrass; assay: Test Example 5: herbicidal effect by foliage application, plastic box (Table 20, symbol J); assay type: in vivo, blackgrass (Alopecurus myosuroides); conditions: foliage application
How it was run: as §2

[6] = system: blackgrass; assay: Test Example 4: herbicidal effect by soil treatment (Table 19, symbol J); assay type: in vivo, blackgrass (Alopecurus myosuroides); conditions: amount of applied herbicide 320 g/ha
How it was run: as §1

[7] = system: Chinese sprangletop; assay: Test Example 3: herbicidal effect by foliage application, Wagner pot (Table 18, symbol D); assay type: in vivo, chinese sprangletop (Leptochloa chinensis); conditions: amount of applied herbicide 320 g/ha
How it was run: (§3)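 Plants were sown in alluvial soil held under 0.1–0.5 cm standing water and grown 14 days in a greenhouse at 25–30 °C. An emulsifiable formulation, water-diluted to the set dose, was then sprayed onto the foliage, and effects were scored three weeks later using previously defined criteria.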

[8] = system: lambsquarters; assay: Test Example 5: herbicidal effect by foliage application, plastic box (Table 20, symbol O); assay type: in vivo, lambsquarters (Chenopodium album); conditions: foliage application
How it was run: as §2

[9] = system: redroot pigweed; assay: Test Example 5: herbicidal effect by foliage application, plastic box (Table 20, symbol N); assay type: in vivo, redroot pigweed (Amaranthus retroflexus); conditions: foliage application
How it was run: as §2

[10] = system: late watergrass; assay: Test Example 1: herbicidal activity, application before weed generation under submerged conditions (Table 16, symbol A); assay type: in vivo, late watergrass (Echinochloa oryzicola); conditions: amount of applied herbicide 320 g/ha
How it was run: (§4)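 Alluvial soil was flooded to 4 cm depth, weed seeds were sown mixed and 2.5-leaf rice seedlings were transplanted. On sowing day, the compound's emulsion, diluted in water to a set dose, was applied to the water surface. Plants grew at 25–30 °C and were scored 0–5 after three weeks.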

[11] = system: barnyard grass; assay: Test Example 3: herbicidal effect by foliage application, Wagner pot (Table 18, symbol H); assay type: in vivo, barnyard grass (Echinochloa crus-galli); conditions: amount of applied herbicide 320 g/ha
How it was run: as §3

[12] = system: barnyard grass; assay: Test Example 5: herbicidal effect by foliage application, plastic box (Table 20, symbol H); assay type: in vivo, barnyard grass (Echinochloa crus-galli); conditions: foliage application
How it was run: as §2

[13] = system: wild oat; assay: Test Example 5: herbicidal effect by foliage application, plastic box (Table 20, symbol I); assay type: in vivo, wild oat (Avena fatua); conditions: foliage application
How it was run: as §2

[14] = system: green foxtail; assay: Test Example 4: herbicidal effect by soil treatment (Table 19, symbol G); assay type: in vivo, green foxtail (Setaria viridis); conditions: amount of applied herbicide 320 g/ha
How it was run: as §1

[15] = system: persian speedwell; assay: Test Example 4: herbicidal effect by soil treatment (Table 19, symbol R); assay type: in vivo, Persian speedwell (Veronica persica); conditions: amount of applied herbicide 320 g/ha
How it was run: as §1

[16] = system: rice flat sedge; assay: Test Example 3: herbicidal effect by foliage application, Wagner pot (Table 18, symbol E); assay type: in vivo, rice flat sedge (Cyperus iria); conditions: amount of applied herbicide 320 g/ha
How it was run: as §3

[17] = system: Italian ryegrass; assay: Test Example 4: herbicidal effect by soil treatment (Table 19, symbol K); assay type: in vivo, Italian ryegrass (Lolium multiflorum); conditions: amount of applied herbicide 320 g/ha
How it was run: as §1

[18] = system: green foxtail; assay: Test Example 5: herbicidal effect by foliage application, plastic box (Table 20, symbol G); assay type: in vivo, green foxtail (Setaria viridis); conditions: foliage application
How it was run: as §2

[19] = system: velvetleaf; assay: Test Example 5: herbicidal effect by foliage application, plastic box (Table 20, symbol M); assay type: in vivo, velvetleaf (Abutilon theophrasti); conditions: foliage application
How it was run: as §2

[20] = system: persian speedwell; assay: Test Example 5: herbicidal effect by foliage application, plastic box (Table 20, symbol R); assay type: in vivo, Persian speedwell (Veronica persica); conditions: foliage application
How it was run: as §2

[21] = system: barnyard grass; assay: Test Example 4: herbicidal effect by soil treatment (Table 19, symbol H); assay type: in vivo, barnyard grass (Echinochloa crus-galli); conditions: amount of applied herbicide 320 g/ha
How it was run: as §1

[22] = system: oval-leafed pondweed; assay: Test Example 1: herbicidal activity, application before weed generation under submerged conditions (Table 16, symbol C); assay type: in vivo, oval-leafed pondweed (Monochoria vaginalis); conditions: amount of applied herbicide 320 g/ha
How it was run: as §4

[23] = system: windgrass; assay: Test Example 5: herbicidal effect by foliage application, plastic box (Table 20, symbol L); assay type: in vivo, windgrass (Apera spica-venti); conditions: foliage application
How it was run: as §2

[24] = system: velvetleaf; assay: Test Example 4: herbicidal effect by soil treatment (Table 19, symbol M); assay type: in vivo, velvetleaf (Abutilon theophrasti); conditions: amount of applied herbicide 320 g/ha
How it was run: as §1

[25] = system: southern crabgrass; assay: Test Example 5: herbicidal effect by foliage application, plastic box (Table 20, symbol F); assay type: in vivo, southern crabgrass (Digitaria ciliaris); conditions: foliage application
How it was run: as §2

[26] = system: chickweed; assay: Test Example 5: herbicidal effect by foliage application, plastic box (Table 20, symbol P); assay type: in vivo, common chickweed (Stellaria media); conditions: foliage application
How it was run: as §2

[27] = system: Japanese bulrush; assay: Test Example 1: herbicidal activity, application before weed generation under submerged conditions (Table 16, symbol B); assay type: in vivo, Japanese bulrush (Schoenoplectus juncoides); conditions: amount of applied herbicide 320 g/ha
How it was run: as §4

[28] = system: lambsquarters; assay: Test Example 4: herbicidal effect by soil treatment (Table 19, symbol O); assay type: in vivo, lambsquarters (Chenopodium album); conditions: amount of applied herbicide 320 g/ha
How it was run: as §1

[29] = system: windgrass; assay: Test Example 4: herbicidal effect by soil treatment (Table 19, symbol L); assay type: in vivo, windgrass (Apera spica-venti); conditions: amount of applied herbicide 320 g/ha
How it was run: as §1

[30] = system: redroot pigweed; assay: Test Example 4: herbicidal effect by soil treatment (Table 19, symbol N); assay type: in vivo, redroot pigweed (Amaranthus retroflexus); conditions: amount of applied herbicide 320 g/ha
How it was run: as §1

[31] = AAH 320 g/ha, evaluated three weeks after application
[32] = 320 g/ha, three weeks after application

SMILES | herbicidal effect, I: wild oat [1] | herbicidal effect, F: southern crabgrass [3] | herbicidal effect, P: chickweed [4] | herbicidal effect, J: blackgrass [6] | herbicidal effect on D: Chinese sprangletop [7] | Herbicidal effect, A: late watergrass [10] | herbicidal effect on H: barnyard grass [11] | herbicidal effect, G: green foxtail [14] | herbicidal effect, R: persian speedwell [15] | herbicidal effect on E: rice flat sedge [16] | herbicidal effect, K: Italian ryegrass [17] | herbicidal effect, H: barnyard grass [21] | Herbicidal effect, C: oval-leafed pondweed [22] | herbicidal effect, M: velvetleaf [24] | Herbicidal effect, B: Japanese bulrush [27] | herbicidal effect, O: lambsquarters [28] | herbicidal effect, L: windgrass [29] | herbicidal effect, N: redroot pigweed [30] | also measured
Cc1nn(C)c(=O)c(-c2c(-c3ccc(Cl)s3)sc3ccc(F)cc23)c1O [2-390] | 1 (Herbicidal rate of 5% or more and less than 20%) | 4 (Herbicidal rate of 70% or more and less than 90%) | 4 (Herbicidal rate of 70% or more and less than 90%) | 5 (Herbicidal rate of 90% or more (almost completely withered)) | 3 (Herbicidal rate of 40% or more and less than 70%) | 2 (Herbicidal rate of 20% or more and less than 40%) | 5 (Herbicidal rate of 90% or more (almost completely withered)) | 5 (Herbicidal rate of 90% or more (almost completely withered)) | 5 (Herbicidal rate of 90% or more (almost completely withered)) | 5 (Herbicidal rate of 90% or more (almost completely withered)) | 5 (Herbicidal rate of 90% or more (almost completely withered)) | 5 (Herbicidal rate of 90% or more (almost completely withered)) | 0 (Herbicidal rate of 5% or less (almost no effect)) | 3 (Herbicidal rate of 40% or more and less than 70%) | 0 (Herbicidal rate of 5% or less (almost no effect)) | 4 (Herbicidal rate of 70% or more and less than 90%) | 4 (Herbicidal rate of 70% or more and less than 90%) | 5 (Herbicidal rate of 90% or more (almost completely withered)) | K: Italian ryegrass, herbicidal effect (criteria 0-5) [2, 31]: 5 (Herbicidal rate of 90% or more (almost completely withered)); J: blackgrass, herbicidal effect (criteria 0-5) [5, 31]: 4 (Herbicidal rate of 70% or more and less than 90%); O: lambsquarters, herbicidal effect (criteria 0-5) [8, 31]: 5 (Herbicidal rate of 90% or more (almost completely withered)); N: redroot pigweed, herbicidal effect (criteria 0-5) [9, 31]: 5 (Herbicidal rate of 90% or more (almost completely withered)); H: barnyard grass, herbicidal effect (criteria 0-5) [12, 31]: 4 (Herbicidal rate of 70% or more and less than 90%); I: wild oat, herbicidal effect (criteria 0-5) [13, 31]: 4 (Herbicidal rate of 70% or more and less than 90%); G: green foxtail, herbicidal effect (criteria 0-5) [18, 31]: 5 (Herbicidal rate of 90% or more (almost completely withered)); M: velvetleaf, herbicidal effect (criteria 0-5) [19, 31]: 5 (Herbicidal rate of 90% or more (almost completely withered)); R: persian speedwell, herbicidal effect (criteria 0-5) [20, 31]: 5 (Herbicidal rate of 90% or more (almost completely withered)); L: windgrass, herbicidal effect (criteria 0-5) [23, 31]: 5 (Herbicidal rate of 90% or more (almost completely withered)); F: southern crabgrass, herbicidal effect (criteria 0-5) [25, 31]: 5 (Herbicidal rate of 90% or more (almost completely withered)); P: chickweed, herbicidal effect (criteria 0-5) [26, 31]: 5 (Herbicidal rate of 90% or more (almost completely withered))
COc1ccccc1-c1sc2cc(F)ccc2c1-c1c(OC(=O)COc2ccccc2)c(C)nn(C)c1=O [3-021] | 1 (Herbicidal rate of 5% or more and less than 20%) | 3 (Herbicidal rate of 40% or more and less than 70%) | 3 (Herbicidal rate of 40% or more and less than 70%) | 4 (Herbicidal rate of 70% or more and less than 90%) | 3 (Herbicidal rate of 40% or more and less than 70%) | 3 (Herbicidal rate of 40% or more and less than 70%) | 5 (Herbicidal rate of 90% or more (almost completely withered)) | 4 (Herbicidal rate of 70% or more and less than 90%) | 4 (Herbicidal rate of 70% or more and less than 90%) | 5 (Herbicidal rate of 90% or more (almost completely withered)) | 4 (Herbicidal rate of 70% or more and less than 90%) | 4 (Herbicidal rate of 70% or more and less than 90%) | 4 (Herbicidal rate of 70% or more and less than 90%) | 0 (Herbicidal rate of 5% or less (almost no effect)) | 3 (Herbicidal rate of 40% or more and less than 70%) | 4 (Herbicidal rate of 70% or more and less than 90%) | 3 (Herbicidal rate of 40% or more and less than 70%) | 4 (Herbicidal rate of 70% or more and less than 90%) | K: Italian ryegrass, herbicidal effect grade [2, 32]: 4 (Herbicidal rate of 70% or more and less than 90%); J: blackgrass, herbicidal effect grade [5, 32]: 4 (Herbicidal rate of 70% or more and less than 90%); O: lambsquarters, herbicidal effect grade [8, 32]: 5 (Herbicidal rate of 90% or more (almost completely withered)); N: redroot pigweed, herbicidal effect grade [9, 32]: 5 (Herbicidal rate of 90% or more (almost completely withered)); H: barnyard grass, herbicidal effect grade [12, 32]: 5 (Herbicidal rate of 90% or more (almost completely withered)); I: wild oat, herbicidal effect grade [13, 32]: 4 (Herbicidal rate of 70% or more and less than 90%); G: green foxtail, herbicidal effect grade [18, 32]: 5 (Herbicidal rate of 90% or more (almost completely withered)); M: velvetleaf, herbicidal effect grade [19, 32]: 5 (Herbicidal rate of 90% or more (almost completely withered)); R: persian speedwell, herbicidal effect grade [20, 32]: 4 (Herbicidal rate of 70% or more and less than 90%); L: windgrass, herbicidal effect grade [23, 32]: 5 (Herbicidal rate of 90% or more (almost completely withered)); F: southern crabgrass, herbicidal effect grade [25, 32]: 4 (Herbicidal rate of 70% or more and less than 90%); P: chickweed, herbicidal effect grade [26, 32]: 5 (Herbicidal rate of 90% or more (almost completely withered))
